pIC50: −log10 of the molar value.
What was measured:
[1] = test system: LNCaP SRα F876L tumors; experiment: Castrate resistant prostate cancer xenograft study; type: in vivo, mouse; conditions: castrate SHO mice
Description: Castrate six to seven week old male SCID Hairless Outbred mice (SHO, Charles Rivers Laboratories) were used as the host strain for xenograft studies. LNCaP SRα F876L tumors were established in host mice and the anti-tumor activity of compounds defined herein was determined. Dosing was initiated when tumors reached 100 to 200 mm^3 and animals were randomized to each of test groups (vehicle (HP-β-CD), 10 mg/kg, 30 mg/kg or 50 mg/kg compound). Compound was dosed orally, QD, for 28 days and tumor size was measured twice weekly along with body weight measurement. At the end of study, the TGI was calculated using initial tumor volume and final tumor volume measurements. TGI: 100−(Treated/Control*100). At the termination of study tumors were collected and stored for further analyses.

[2] = target: T1, AR-VP16 (Homo sapiens, UniProt P10275); experiment: AR-VP16 DNA binding assay, HepG2; type: cell-based; conditions: HepG2, antagonist mode, 90 pM R1881, 48 hours; read-out: IC50 VP16 WT
T1 sequence (P10275 560-920 limits assumed): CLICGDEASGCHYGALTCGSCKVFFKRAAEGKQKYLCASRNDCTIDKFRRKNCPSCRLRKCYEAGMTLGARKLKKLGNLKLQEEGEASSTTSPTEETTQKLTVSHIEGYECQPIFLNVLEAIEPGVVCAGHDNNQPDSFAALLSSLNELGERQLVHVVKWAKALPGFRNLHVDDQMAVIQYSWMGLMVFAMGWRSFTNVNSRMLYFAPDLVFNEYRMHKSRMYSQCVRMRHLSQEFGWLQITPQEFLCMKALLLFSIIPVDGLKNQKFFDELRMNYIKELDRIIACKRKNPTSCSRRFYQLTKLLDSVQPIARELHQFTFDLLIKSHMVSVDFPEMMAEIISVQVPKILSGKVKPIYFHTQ
Description: (§1) HepG2 cells were maintained in EMEM supplemented with 10% FBS. One day before transfection, the media was changed to EMEM with 10% CSS. […] Cells were then trypsinized, counted and resuspended at 500,000 cells/mL. For agonist mode, the compounds were serially diluted and 50 μL of the compound was added per well. 50 μL of the cells were added to each well and incubated for 48 hours. For antagonist mode, a final concentration of 90 pM (VP16 AR) or 1 nM (VP16 F876L) R1881 was added to the plate and incubated for 48 hours. The plates were then assayed using SteadyGlo and read on the Envision. Percent Stimulation and Inhibition were determined and analyzed using GraphPad Prism.

[3] = target: T2, F876L-VP16 (Homo sapiens, UniProt P10275, F877L); experiment: AR-VP16 DNA binding assay, HepG2; type: cell-based; conditions: HepG2, antagonist mode, 1 nM R1881, 48 hours
T2 construct: VP16 (fusion partner); expressed in transfected cells; host or cells: HepG2
T2 sequence (P10275 1-920 F877L): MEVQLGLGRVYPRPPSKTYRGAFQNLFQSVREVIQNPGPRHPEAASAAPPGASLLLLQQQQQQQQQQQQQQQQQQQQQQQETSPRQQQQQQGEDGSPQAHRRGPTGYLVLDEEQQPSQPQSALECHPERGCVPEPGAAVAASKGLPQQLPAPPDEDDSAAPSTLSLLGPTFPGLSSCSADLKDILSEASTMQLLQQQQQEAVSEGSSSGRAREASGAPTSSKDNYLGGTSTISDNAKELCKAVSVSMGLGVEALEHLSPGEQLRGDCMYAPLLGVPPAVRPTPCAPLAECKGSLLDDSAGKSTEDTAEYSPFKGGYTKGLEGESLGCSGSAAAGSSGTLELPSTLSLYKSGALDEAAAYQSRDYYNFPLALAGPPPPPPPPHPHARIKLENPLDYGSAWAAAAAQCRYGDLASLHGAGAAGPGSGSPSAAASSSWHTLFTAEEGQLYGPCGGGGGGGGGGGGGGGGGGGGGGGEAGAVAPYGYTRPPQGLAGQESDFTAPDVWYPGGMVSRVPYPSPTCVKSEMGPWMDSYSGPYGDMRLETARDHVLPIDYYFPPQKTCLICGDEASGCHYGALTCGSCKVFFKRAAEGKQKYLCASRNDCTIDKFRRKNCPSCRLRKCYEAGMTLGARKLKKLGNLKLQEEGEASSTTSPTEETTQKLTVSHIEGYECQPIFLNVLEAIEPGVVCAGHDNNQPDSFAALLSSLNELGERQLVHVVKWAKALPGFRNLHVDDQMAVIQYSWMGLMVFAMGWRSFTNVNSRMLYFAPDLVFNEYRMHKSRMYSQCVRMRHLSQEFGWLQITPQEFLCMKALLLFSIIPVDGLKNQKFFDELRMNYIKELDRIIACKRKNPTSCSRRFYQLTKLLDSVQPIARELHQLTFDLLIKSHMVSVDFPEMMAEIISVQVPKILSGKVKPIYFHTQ
Description: as §1

[4] = test system: androgen dependent signaling; experiment: Hershberger assay; type: in vivo, rat; conditions: castrated rats, mean ± SD (n=6)
Description: The effect of AR antagonists on androgen dependent signaling in vivo was assessed using the Hershberger assay. In this assay, peripubertal castrated male Sprague-Dawley rats were administered AR antagonists described herein in the presence of testosterone (0.4 mg/kg testosterone propionate) and the weights of androgen dependent organs measured. Dosing was continued for 10 days and measurements taken 24 h after the last dose. The extent of antagonism of AR and consequent inhibition of organ growth was evaluated by comparison to the castration control. Compounds of Formula (I) were dosed orally QD and an endpoint assessment made by change in weight of 5 androgen sensitive organs (ASO): Paired Cowper's Glands (CG), Seminal Vesicles with Fluids and Coagulating Glands (SVCG), Glans Penis (GP), Ventral Prostate (VP) and Levator Ani-Bulbocavernosus Complex (LABC)). According to assay guidelines, statistically significant suppression of ASO is required in 2 of 5 organs for a compound to be classified as an anti-androgen (analysis was performed by t-test/Mann-Whitney).
Compounds defined herein were administered at the indicated dose (mg/kg) and flutamide (FT), positive control, at 3 mg/kg. All compounds were co-administered with testosterone propionate (TP, 0.4 mg/kg) which was also administered alone, untreated control, (castrated only rats served as the control for complete androgen blockade). A statistically significant change in ASO achieved in at least 2 of 5 organs was indicative of an active compound.

[5] = 30 mg/kg orally QD 10 days with testosterone propionate 0.4 mg/kg
[6] = 3 mg/kg orally QD 10 days with testosterone propionate 0.4 mg/kg
[7] = 10 mg/kg orally QD 10 days with testosterone propionate 0.4 mg/kg

Row | pIC50 [2] | pIC50 [3] | Structure (SMILES) | TGI (%) ([1]; 30 mg/kg orally QD 28 days) | ASO Organ Growth (% of TP control) SVCG [4, 5] | ASO Organ Growth (% of TP control) VP [4, 5] | TGI (%) ([1]; 10 mg/kg orally QD 28 days) | ASO Organ Growth (% of TP control) SVCG [4, 6] | ASO Organ Growth (% of TP control) VP [4, 6] | ASO Organ Growth (% of TP control) SVCG [4, 7] | ASO Organ Growth (% of TP control) VP [4, 7]
1 | 5.47 | 5.56 | N#Cc1ncc(N2C(=O)C3(CCC3)N(c3ccc(OC4CCNCC4)cc3)C2=S)cc1C(F)(F)F [Cpd 35, 5-[5-oxo-8-[4-(4-piperidyloxy)phenyl]-7-thioxo-6,8-diazaspiro[3.4]octan-6-yl]-3-(trifluoromethyl)pyridine-2-carbonitrile] | 53 | 28.1 ± 19.5 % of TP control | 25.7 ± 22.9 % of TP control |  |  |  |  | 
2 | 7.62 | 6.00 | N#Cc1ncc(N2C(=O)C3(CCC3)N(c3ccc(C(=O)NCCCO)c(F)c3)C2=S)cc1C(F)(F)F [Cpd 40, 4-[6-[6-cyano-5-(trifluoromethyl)-3-pyridyl]-5-oxo-7-thioxo-6,8-diazaspiro[3.4]octan-8-yl]-2-fluoro-N-(3-hydroxypropyl)benzamide] |  |  |  |  |  |  |  | 
3 |  |  | CN1CCC(Oc2ccc(N3C(=S)N(c4cnc(C#N)c(C(F)(F)F)c4)C(=O)C34CCC4)cc2)CC1 [Cpd 85, 5-[8-[4-[(1-methyl-4-piperidyl)oxy]phenyl]-5-oxo-7-thioxo-6,8-diazaspiro[3.4]octan-6-yl]-3-(trifluoromethyl)pyridine-2-carbonitrile] | 100.8 | 8.5 ± 14.7 % of TP control | 13.2 ± 19.2 % of TP control | 80.2 | 67.3 ± 20.2 % of TP control | 72.3 ± 18.5 % of TP control | 31.6 ± 37.7 % of TP control | 37.4 ± 25.6 % of TP control
